The text below walks through data of ChEMBL document CHEMBL1130772, “New nonsteroidal androgen receptor modulators based on 4-(trifluoromethyl)-2(1H)-pyrrolidino[3,2-g] quinolinone” (Bioorg Med Chem Lett, 1998).

In experiment [1] the target is T1, Estrogen receptor (Homo sapiens, UniProt Q92731+P03372). Description: (§1) Antagonistic activity against Estrogen receptor in co-transfected CV-1 cell. The class given is functional, cell-based.
For experiment [2], the target named is T2, Androgen receptor (Homo sapiens, UniProt P10275).
T2 sequence (P10275 whole entry): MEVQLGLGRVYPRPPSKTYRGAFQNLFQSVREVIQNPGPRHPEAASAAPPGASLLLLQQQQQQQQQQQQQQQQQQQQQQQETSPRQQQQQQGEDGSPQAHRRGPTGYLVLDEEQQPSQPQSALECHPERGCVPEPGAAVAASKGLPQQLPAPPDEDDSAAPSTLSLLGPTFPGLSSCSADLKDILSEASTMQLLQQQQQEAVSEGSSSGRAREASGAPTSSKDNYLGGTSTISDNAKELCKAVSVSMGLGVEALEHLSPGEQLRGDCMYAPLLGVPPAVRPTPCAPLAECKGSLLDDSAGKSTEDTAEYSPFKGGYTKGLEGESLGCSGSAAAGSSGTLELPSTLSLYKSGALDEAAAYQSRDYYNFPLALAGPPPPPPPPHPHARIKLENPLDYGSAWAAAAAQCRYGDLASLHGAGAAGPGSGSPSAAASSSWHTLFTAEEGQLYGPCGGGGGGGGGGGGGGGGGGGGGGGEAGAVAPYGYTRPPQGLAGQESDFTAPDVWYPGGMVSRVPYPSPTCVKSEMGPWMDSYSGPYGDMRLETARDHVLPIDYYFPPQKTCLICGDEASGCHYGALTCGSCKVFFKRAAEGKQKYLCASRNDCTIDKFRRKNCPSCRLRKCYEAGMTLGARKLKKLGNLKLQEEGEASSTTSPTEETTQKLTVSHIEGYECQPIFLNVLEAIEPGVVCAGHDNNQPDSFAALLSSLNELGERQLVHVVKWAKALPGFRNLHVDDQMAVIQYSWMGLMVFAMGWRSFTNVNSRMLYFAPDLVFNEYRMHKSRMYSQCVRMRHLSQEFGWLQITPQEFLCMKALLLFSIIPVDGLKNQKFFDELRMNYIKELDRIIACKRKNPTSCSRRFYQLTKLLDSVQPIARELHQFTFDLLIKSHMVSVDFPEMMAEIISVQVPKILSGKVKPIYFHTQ
Description: Antagonistic activity (IC50) against human androgen receptor (hAR) in co-transfected CV-1 cell

The target in experiment [3] is T2, Androgen receptor. The note with it: cv-1.
Description: Agonistic activity against human androgen receptor (hAR) in co-transfected CV-1 cell
In experiment [4] the target is T3, Mineralocorticoid receptor (Homo sapiens, UniProt P08235).
T3 sequence (P08235 whole entry): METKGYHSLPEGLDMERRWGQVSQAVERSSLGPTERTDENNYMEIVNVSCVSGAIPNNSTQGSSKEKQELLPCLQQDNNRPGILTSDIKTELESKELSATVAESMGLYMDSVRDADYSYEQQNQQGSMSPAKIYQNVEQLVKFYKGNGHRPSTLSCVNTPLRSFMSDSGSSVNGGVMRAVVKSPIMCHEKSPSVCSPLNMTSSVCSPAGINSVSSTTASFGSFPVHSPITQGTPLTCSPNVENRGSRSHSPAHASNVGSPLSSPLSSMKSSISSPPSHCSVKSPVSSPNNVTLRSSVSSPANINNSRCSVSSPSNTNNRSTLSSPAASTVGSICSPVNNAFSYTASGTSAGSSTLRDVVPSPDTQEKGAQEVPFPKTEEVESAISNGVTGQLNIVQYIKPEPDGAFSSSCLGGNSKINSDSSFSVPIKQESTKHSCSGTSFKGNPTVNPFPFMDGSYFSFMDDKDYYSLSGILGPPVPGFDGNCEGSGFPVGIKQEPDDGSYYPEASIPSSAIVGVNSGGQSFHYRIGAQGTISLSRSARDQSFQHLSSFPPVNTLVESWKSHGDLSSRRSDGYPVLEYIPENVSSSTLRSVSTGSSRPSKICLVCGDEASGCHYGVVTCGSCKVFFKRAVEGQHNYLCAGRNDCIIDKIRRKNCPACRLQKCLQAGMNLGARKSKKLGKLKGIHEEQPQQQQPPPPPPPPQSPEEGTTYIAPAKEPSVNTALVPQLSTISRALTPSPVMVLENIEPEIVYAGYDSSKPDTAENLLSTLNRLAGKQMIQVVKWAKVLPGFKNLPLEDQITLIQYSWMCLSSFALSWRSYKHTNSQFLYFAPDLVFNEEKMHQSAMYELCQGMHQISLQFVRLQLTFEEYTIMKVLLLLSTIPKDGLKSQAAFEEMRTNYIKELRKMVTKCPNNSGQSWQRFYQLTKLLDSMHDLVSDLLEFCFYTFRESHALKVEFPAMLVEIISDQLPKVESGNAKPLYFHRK
Description: Antagonistic activity against hMR in co-transfected CV-1 cell. Type of experiment: functional, cell-based.

In experiment [5] the target is T1, Estrogen receptor. The experiment is described as §1. The class given is functional, cell-based. This is another data set of the same source.
The target of experiment [6] is T2, Androgen receptor. Description: Binding affinity against Androgen receptor transfected into COS cells.

SMILES strings stand for the structures. Bounds are passed on as bounds.

Consider `CN1c2cc3c(cc2[C@H]2CCCC[C@H]21)c(C(F)(F)F)cc(=O)n3C`, for which the Efficacy on Estrogen receptor [1] is below 20%. Besides, the IC50 was 36 nM against Androgen receptor [2], above 10000 nM in experiment [4] and above 10000 nM at Estrogen receptor [5]. The EC50 result at Androgen receptor [3] is reported as “Not Active”. Moreover, at Androgen receptor [6], the affinity corresponds to a Ki of 10 nM.
`C[C@H]1CC[C@H]2Nc3cc4c(cc3[C@H]2C1)c(C(F)(F)F)cc(=O)n4C` had an Efficacy on Estrogen receptor [1] below 20%. In addition, the IC50 against Androgen receptor [2] is 48 nM; in experiment [4] it was above 10000 nM; on Estrogen receptor [5], above 10000 nM. For the same compound, the EC50 result on Androgen receptor [3] is on record as “Not Active”. For the same compound, the inhibition constant (Ki) at Androgen receptor [6] came out at 94 nM.
Take `CC1(C)CCC[C@]2(C)c3cc4c(C(F)(F)F)cc(O)nc4cc3N[C@H]12`: the Efficacy at Estrogen receptor [1] is below 20%. For the same compound, the IC50 against Androgen receptor [2] is 51 nM; in experiment [4] it was 570 nM; against Estrogen receptor [5] it was above 10000 nM. Also, the EC50 result on Androgen receptor [3] is on record as “Not Active”. Besides, at Androgen receptor [6], the affinity corresponds to a Ki of 77 nM.
